Experiments:
Assay in all cases: KINOMEscan competition binding
[1] = target: ABL2 (human) (UniProt P42684)
[2] = target: ACVR1B (human) (UniProt P36896)
[3] = target: AKT2 (human) (UniProt P31751)
[4] = target: BMPR1A (human) (UniProt P36894)
[5] = target: BRSK2 (human) (UniProt Q8IWQ3)
[6] = target: CAMKK1 (human) (UniProt Q8N5S9)
[7] = target: CDC2L2 (human) (UniProt Q9UQ88)
[8] = target: CDK4 CCND3 (human) (UniProt P11802+P30281)
[9] = target: CDK9 (human) (UniProt P50750)
[10] = target: CIT (human) (UniProt O14578)
[11] = target: DDR2 (human) (UniProt Q16832)
[12] = target: DYRK2 (human) (UniProt Q92630)
[13] = target: EGFR (human) (UniProt P00533)
[14] = tested on: EGFR (human), P00533 [746-750 del]
[15] = target: ERBB3 (human) (UniProt P21860)
[16] = target: ERBB4 (human) (UniProt Q15303)
[17] = target: FLT4 (human) (UniProt P35916)
FLT4 (human), sequence (P35916 whole entry, looked up): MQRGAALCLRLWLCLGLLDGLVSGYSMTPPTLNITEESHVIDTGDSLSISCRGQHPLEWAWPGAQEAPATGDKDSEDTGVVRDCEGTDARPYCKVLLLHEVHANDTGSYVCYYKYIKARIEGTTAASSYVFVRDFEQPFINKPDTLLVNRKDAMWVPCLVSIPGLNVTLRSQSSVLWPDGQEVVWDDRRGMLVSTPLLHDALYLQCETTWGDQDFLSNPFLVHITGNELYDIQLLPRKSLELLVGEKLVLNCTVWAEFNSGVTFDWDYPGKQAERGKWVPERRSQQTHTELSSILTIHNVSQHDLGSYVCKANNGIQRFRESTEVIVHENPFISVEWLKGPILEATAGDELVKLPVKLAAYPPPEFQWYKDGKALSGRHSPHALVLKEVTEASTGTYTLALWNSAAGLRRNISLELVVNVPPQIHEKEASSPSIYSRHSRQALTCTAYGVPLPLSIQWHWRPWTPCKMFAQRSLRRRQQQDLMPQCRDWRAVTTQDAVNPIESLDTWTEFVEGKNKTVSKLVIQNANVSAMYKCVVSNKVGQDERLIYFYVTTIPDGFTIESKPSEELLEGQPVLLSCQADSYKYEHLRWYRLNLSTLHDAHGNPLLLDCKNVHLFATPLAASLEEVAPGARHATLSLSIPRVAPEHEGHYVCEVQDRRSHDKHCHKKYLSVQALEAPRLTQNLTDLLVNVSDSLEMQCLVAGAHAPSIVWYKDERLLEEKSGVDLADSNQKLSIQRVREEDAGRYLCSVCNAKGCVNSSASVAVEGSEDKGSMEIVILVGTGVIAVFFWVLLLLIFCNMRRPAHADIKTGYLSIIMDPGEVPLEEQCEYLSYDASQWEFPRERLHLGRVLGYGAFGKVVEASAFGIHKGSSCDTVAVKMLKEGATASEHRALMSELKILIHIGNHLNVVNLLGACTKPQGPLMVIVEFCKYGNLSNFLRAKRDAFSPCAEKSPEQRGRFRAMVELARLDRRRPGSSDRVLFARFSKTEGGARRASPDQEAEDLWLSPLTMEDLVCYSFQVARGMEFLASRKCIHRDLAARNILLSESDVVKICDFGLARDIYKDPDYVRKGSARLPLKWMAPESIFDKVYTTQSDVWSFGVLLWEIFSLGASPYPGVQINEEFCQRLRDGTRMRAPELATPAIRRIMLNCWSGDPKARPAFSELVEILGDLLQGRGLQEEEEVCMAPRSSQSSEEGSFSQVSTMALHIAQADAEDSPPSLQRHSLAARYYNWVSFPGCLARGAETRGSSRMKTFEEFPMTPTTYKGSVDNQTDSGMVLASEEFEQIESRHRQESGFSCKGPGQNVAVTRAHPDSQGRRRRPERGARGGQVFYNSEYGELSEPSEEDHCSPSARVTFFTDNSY

[18] = target: GAK (human) (UniProt O14976)
[19] = target: HIPK3 (human) (UniProt Q9H422)
[20] = target: INSRR (human) (UniProt P14616)
[21] = target: JAK1 JH2 pseudokinase (human) (UniProt P23458)
[22] = target: JAK3 JH1 catalytic (human) (UniProt P52333)
[23] = target: MAP2K7 (human) (UniProt O14733)
[24] = target: MAP3K13 (human) (UniProt O43283)
[25] = target: MAP4K1 (human) (UniProt Q92918)
[26] = target: MAPK11 (human) (UniProt Q15759)
MAPK11 (human), sequence (Q15759 whole entry, looked up): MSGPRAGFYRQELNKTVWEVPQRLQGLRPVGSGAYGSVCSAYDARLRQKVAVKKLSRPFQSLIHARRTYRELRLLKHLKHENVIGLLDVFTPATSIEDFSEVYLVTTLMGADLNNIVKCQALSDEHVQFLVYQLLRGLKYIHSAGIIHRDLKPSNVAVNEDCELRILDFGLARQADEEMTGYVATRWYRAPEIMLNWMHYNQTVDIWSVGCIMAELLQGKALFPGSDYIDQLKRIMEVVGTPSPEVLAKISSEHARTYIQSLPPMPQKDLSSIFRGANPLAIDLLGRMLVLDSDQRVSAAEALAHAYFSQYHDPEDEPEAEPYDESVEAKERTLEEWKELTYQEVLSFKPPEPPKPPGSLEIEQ

[27] = target: MAPK15 (human) (UniProt Q8TD08)
[28] = target: MYLK2 (human) (UniProt Q9H1R3)
[29] = tested on: PIK3CA (human), P42336 [C420R]
PIK3CA (human), P42336 [C420R], sequence (P42336 whole entry C420R, looked up): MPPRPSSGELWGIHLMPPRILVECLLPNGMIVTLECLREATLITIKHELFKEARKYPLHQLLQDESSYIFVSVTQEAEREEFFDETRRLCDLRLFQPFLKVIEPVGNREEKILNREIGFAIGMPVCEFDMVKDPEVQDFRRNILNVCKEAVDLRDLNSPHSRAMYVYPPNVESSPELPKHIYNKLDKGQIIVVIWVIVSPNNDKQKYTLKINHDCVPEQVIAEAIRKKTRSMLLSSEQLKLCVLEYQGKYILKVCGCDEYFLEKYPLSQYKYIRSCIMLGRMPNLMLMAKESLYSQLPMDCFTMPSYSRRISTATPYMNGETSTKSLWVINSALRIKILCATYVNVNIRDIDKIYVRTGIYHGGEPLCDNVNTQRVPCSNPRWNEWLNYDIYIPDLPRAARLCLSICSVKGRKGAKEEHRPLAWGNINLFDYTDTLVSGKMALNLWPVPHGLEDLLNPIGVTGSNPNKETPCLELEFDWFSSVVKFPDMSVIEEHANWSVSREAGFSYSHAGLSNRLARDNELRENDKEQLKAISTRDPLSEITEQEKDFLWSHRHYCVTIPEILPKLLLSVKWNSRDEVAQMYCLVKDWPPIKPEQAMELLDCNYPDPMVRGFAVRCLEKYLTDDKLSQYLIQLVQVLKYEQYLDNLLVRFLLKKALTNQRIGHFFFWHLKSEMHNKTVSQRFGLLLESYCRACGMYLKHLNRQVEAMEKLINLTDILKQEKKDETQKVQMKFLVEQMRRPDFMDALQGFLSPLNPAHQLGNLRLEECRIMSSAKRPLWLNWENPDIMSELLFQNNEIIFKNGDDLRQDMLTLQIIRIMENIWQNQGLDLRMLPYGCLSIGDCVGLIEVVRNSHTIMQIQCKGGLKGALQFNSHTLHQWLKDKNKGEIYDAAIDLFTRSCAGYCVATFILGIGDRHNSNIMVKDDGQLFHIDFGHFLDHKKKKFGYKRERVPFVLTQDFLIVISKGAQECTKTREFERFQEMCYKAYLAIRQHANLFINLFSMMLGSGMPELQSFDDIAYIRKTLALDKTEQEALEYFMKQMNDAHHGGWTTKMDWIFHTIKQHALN

[30] = tested on: PIK3CA (human), P42336 [M1043I]
[31] = target: PIP4K2B (human) (UniProt P78356)
[32] = target: PRKD1 (human) (UniProt Q15139)
PRKD1 (human), sequence (Q15139 whole entry, looked up): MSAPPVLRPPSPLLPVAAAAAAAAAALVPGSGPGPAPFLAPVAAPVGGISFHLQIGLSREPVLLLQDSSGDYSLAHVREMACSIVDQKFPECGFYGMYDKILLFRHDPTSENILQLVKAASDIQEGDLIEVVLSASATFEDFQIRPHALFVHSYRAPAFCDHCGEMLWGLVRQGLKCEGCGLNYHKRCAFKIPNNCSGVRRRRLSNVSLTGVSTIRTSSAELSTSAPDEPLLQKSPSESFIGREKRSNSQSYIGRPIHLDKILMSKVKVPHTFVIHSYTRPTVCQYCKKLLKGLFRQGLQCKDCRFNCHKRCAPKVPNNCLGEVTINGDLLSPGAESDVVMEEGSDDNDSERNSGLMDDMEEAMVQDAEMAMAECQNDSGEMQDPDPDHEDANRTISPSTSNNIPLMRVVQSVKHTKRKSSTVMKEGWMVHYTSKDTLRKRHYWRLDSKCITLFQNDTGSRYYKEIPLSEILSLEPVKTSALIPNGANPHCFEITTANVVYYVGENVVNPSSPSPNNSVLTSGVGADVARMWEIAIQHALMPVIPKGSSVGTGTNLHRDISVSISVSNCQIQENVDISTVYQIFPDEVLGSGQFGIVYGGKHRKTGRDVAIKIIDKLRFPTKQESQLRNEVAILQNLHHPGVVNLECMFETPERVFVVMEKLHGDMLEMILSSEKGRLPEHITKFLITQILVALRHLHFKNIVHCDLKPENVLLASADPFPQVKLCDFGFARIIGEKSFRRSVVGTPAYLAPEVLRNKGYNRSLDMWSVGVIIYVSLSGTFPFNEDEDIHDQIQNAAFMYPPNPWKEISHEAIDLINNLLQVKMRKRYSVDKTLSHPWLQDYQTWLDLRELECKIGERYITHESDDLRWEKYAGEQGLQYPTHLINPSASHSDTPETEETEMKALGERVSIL

[33] = target: RIPK4 (human) (UniProt P57078)
[34] = target: RPS6KA6 KD2 (human) (UniProt Q9UK32)
[35] = target: SGK110 (human) (UniProt P0C264)
[36] = target: SIK1 (human) (UniProt P57059)
[37] = target: SIK3 (human) (UniProt Q9Y2K2)
[38] = target: SNRK (human) (UniProt Q9NRH2)
[39] = target: STK24 (human) (UniProt Q9Y6E0)
[40] = target: STK39 (human) (UniProt Q9UEW8)
[41] = target: VRK2 (human) (UniProt Q86Y07)

ACVR1B (human), sequence (P36896 whole entry, looked up): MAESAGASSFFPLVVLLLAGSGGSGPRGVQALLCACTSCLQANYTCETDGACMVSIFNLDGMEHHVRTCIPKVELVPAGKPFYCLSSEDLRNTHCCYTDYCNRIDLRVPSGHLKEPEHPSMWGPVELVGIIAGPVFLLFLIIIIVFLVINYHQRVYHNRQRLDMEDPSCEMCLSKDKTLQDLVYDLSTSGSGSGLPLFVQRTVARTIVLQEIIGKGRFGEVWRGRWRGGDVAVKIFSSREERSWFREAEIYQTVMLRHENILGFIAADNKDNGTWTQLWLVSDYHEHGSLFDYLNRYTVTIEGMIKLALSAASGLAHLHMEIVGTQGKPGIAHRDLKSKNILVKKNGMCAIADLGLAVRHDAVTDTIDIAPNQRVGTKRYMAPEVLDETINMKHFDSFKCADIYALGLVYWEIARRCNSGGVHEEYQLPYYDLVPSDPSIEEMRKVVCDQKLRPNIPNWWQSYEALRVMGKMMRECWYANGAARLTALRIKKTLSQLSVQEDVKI
AKT2 (human), sequence (P31751 whole entry, looked up): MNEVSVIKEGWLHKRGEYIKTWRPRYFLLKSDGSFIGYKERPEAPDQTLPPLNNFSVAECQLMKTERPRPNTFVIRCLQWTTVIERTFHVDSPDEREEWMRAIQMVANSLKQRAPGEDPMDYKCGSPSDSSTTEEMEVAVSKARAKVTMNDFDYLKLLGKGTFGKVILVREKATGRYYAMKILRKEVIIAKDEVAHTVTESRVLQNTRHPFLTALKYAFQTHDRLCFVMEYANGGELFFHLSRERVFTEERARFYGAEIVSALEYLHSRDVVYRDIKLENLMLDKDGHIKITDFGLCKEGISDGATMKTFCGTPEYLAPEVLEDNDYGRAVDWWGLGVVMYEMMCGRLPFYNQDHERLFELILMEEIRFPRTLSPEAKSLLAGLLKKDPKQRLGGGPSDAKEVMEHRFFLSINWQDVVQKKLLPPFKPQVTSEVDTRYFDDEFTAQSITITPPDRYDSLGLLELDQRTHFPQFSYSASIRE
CDK9 (human), sequence (P50750 whole entry, looked up): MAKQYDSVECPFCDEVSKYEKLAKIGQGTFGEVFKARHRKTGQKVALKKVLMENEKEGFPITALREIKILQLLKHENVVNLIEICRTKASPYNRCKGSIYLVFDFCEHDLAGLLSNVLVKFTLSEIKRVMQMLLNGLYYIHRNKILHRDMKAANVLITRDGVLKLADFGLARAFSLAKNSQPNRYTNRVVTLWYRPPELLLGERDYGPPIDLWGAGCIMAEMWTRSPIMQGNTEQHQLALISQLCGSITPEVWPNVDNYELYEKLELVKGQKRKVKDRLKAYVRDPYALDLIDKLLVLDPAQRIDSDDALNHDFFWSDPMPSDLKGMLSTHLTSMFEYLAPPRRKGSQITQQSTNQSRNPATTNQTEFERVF

**Q.** Which results are given for `Cc1ccc(NC(=O)c2ccc(NC(=O)/C=C/CN(C)C)cc2)cc1Nc1nccc(-c2cccnc2)n1`?
**A.** kinase still bound, per cent of control ([1]; compound 10.0 µM): 44%; kinase still bound, per cent of control ([2]; compound 10.0 µM): 70%; kinase still bound, per cent of control ([3]; compound 10.0 µM): 100%; kinase still bound, per cent of control ([4]; compound 10.0 µM): 81%; kinase still bound, per cent of control ([5]; compound 10.0 µM): 88%; kinase still bound, per cent of control ([6]; compound 10.0 µM): 99%; kinase still bound, per cent of control ([7]; compound 10.0 µM): 100%; kinase still bound, per cent of control ([8]; compound 10.0 µM): 100%; kinase still bound, per cent of control ([9]; compound 10.0 µM): 100%; kinase still bound, per cent of control ([10]; compound 10.0 µM): 59%; kinase still bound, per cent of control ([11]; compound 10.0 µM): 0.9%; kinase still bound, per cent of control ([12]; compound 10.0 µM): 36%; kinase still bound, per cent of control ([13]; compound 10.0 µM): 62%; kinase still bound, per cent of control ([14]; compound 10.0 µM): 61%; kinase still bound, per cent of control ([15]; compound 10.0 µM): 100%; kinase still bound, per cent of control ([16]; compound 10.0 µM): 100%; kinase still bound, per cent of control ([17]; compound 10.0 µM): 88%; kinase still bound, per cent of control ([18]; compound 10.0 µM): 8.6%; kinase still bound, per cent of control ([19]; compound 10.0 µM): 35%; kinase still bound, per cent of control ([20]; compound 10.0 µM): 100%; kinase still bound, per cent of control ([21]; compound 10.0 µM): 5.1%; kinase still bound, per cent of control ([22]; compound 10.0 µM): 100%; kinase still bound, per cent of control ([23]; compound 10.0 µM): 100%; kinase still bound, per cent of control ([24]; compound 10.0 µM): 89%; kinase still bound, per cent of control ([25]; compound 10.0 µM): 90%; kinase still bound, per cent of control ([26]; compound 10.0 µM): 49%; kinase still bound, per cent of control ([27]; compound 10.0 µM): 100%; kinase still bound, per cent of control ([28]; compound 10.0 µM): 68%; kinase still bound, per cent of control ([29]; compound 10.0 µM): 100%; kinase still bound, per cent of control ([30]; compound 10.0 µM): 100%; kinase still bound, per cent of control ([31]; compound 10.0 µM): 69%; kinase still bound, per cent of control ([32]; compound 10.0 µM): 100%; kinase still bound, per cent of control ([33]; compound 10.0 µM): 97%; kinase still bound, per cent of control ([34]; compound 10.0 µM): 67%; kinase still bound, per cent of control ([35]; compound 10.0 µM): 85%; kinase still bound, per cent of control ([36]; compound 10.0 µM): 100%; kinase still bound, per cent of control ([37]; compound 10.0 µM): 100%; kinase still bound, per cent of control ([38]; compound 10.0 µM): 92%; kinase still bound, per cent of control ([39]; compound 10.0 µM): 86%; kinase still bound, per cent of control ([40]; compound 10.0 µM): 82%; kinase still bound, per cent of control ([41]; compound 10.0 µM): 85%

**Q.** Which kinase still bound, per cent of control ([1]; compound 1.0 µM) does the source give for `CN(C)C/C=C/C(=O)Nc1cccc(C(=O)Nc2ccc(Nc3nccc(/C(C#N)=C4\Nc5ccccc5S4)n3)cc2)c1` here?
**A.** Its kinase still bound, per cent of control is 100%.

**Q.** What about the kinase still bound, per cent of control ([2]; compound 1.0 µM) of the same molecule?
**A.** The kinase still bound, per cent of control was 96%.

**Q.** What about the kinase still bound, per cent of control ([3]; compound 1.0 µM) of the same molecule?
**A.** Its kinase still bound, per cent of control is 100%.

**Q.** What about the kinase still bound, per cent of control ([4]; compound 1.0 µM) of the same molecule?
**A.** The kinase still bound, per cent of control was 100%.

**Q.** And the kinase still bound, per cent of control ([5]; compound 1.0 µM)?
**A.** The kinase still bound, per cent of control was 100%.

**Q.** What about the kinase still bound, per cent of control ([6]; compound 1.0 µM) of the same molecule?
**A.** Its kinase still bound, per cent of control is 100%.

**Q.** What about the kinase still bound, per cent of control ([7]; compound 1.0 µM) of the same molecule?
**A.** Its kinase still bound, per cent of control is 39%.

**Q.** And the kinase still bound, per cent of control ([8]; compound 1.0 µM)?
**A.** Its kinase still bound, per cent of control is 100%.

**Q.** And the kinase still bound, per cent of control ([9]; compound 1.0 µM)?
**A.** Its kinase still bound, per cent of control is 100%.

**Q.** And the kinase still bound, per cent of control ([10]; compound 1.0 µM)?
**A.** The kinase still bound, per cent of control was 65%.

**Q.** What about the kinase still bound, per cent of control ([11]; compound 1.0 µM) of the same molecule?
**A.** Its kinase still bound, per cent of control is 100%.

**Q.** What about the kinase still bound, per cent of control ([12]; compound 1.0 µM) of the same molecule?
**A.** The kinase still bound, per cent of control was 15%.

**Q.** What about the kinase still bound, per cent of control ([13]; compound 1.0 µM) of the same molecule?
**A.** Its kinase still bound, per cent of control is 81%.

**Q.** And the kinase still bound, per cent of control ([14]; compound 1.0 µM)?
**A.** The kinase still bound, per cent of control was 72%.

**Q.** What about the kinase still bound, per cent of control ([15]; compound 1.0 µM) of the same molecule?
**A.** The kinase still bound, per cent of control was 74%.

**Q.** And the kinase still bound, per cent of control ([16]; compound 1.0 µM)?
**A.** The kinase still bound, per cent of control was 100%.

**Q.** What about the kinase still bound, per cent of control ([17]; compound 1.0 µM) of the same molecule?
**A.** Its kinase still bound, per cent of control is 78%.

**Q.** And the kinase still bound, per cent of control ([18]; compound 1.0 µM)?
**A.** The kinase still bound, per cent of control was 79%.

**Q.** And the kinase still bound, per cent of control ([19]; compound 1.0 µM)?
**A.** Its kinase still bound, per cent of control is 85%.

**Q.** And the kinase still bound, per cent of control ([20]; compound 1.0 µM)?
**A.** Its kinase still bound, per cent of control is 87%.

**Q.** What about the kinase still bound, per cent of control ([21]; compound 1.0 µM) of the same molecule?
**A.** The kinase still bound, per cent of control was 81%.

**Q.** What about the kinase still bound, per cent of control ([22]; compound 1.0 µM) of the same molecule?
**A.** The kinase still bound, per cent of control was 83%.

**Q.** What about the kinase still bound, per cent of control ([23]; compound 1.0 µM) of the same molecule?
**A.** Its kinase still bound, per cent of control is 100%.

**Q.** What about the kinase still bound, per cent of control ([24]; compound 1.0 µM) of the same molecule?
**A.** The kinase still bound, per cent of control was 100%.

**Q.** What about the kinase still bound, per cent of control ([25]; compound 1.0 µM) of the same molecule?
**A.** The kinase still bound, per cent of control was 100%.

**Q.** And the kinase still bound, per cent of control ([26]; compound 1.0 µM)?
**A.** The kinase still bound, per cent of control was 100%.

**Q.** What about the kinase still bound, per cent of control ([27]; compound 1.0 µM) of the same molecule?
**A.** Its kinase still bound, per cent of control is 76%.

**Q.** And the kinase still bound, per cent of control ([28]; compound 1.0 µM)?
**A.** Its kinase still bound, per cent of control is 100%.

**Q.** What about the kinase still bound, per cent of control ([29]; compound 1.0 µM) of the same molecule?
**A.** Its kinase still bound, per cent of control is 100%.

**Q.** And the kinase still bound, per cent of control ([30]; compound 1.0 µM)?
**A.** Its kinase still bound, per cent of control is 100%.

**Q.** And the kinase still bound, per cent of control ([31]; compound 1.0 µM)?
**A.** Its kinase still bound, per cent of control is 81%.

**Q.** What about the kinase still bound, per cent of control ([32]; compound 1.0 µM) of the same molecule?
**A.** The kinase still bound, per cent of control was 100%.

**Q.** And the kinase still bound, per cent of control ([33]; compound 1.0 µM)?
**A.** Its kinase still bound, per cent of control is 100%.

**Q.** What about the kinase still bound, per cent of control ([34]; compound 1.0 µM) of the same molecule?
**A.** The kinase still bound, per cent of control was 100%.

**Q.** What about the kinase still bound, per cent of control ([35]; compound 1.0 µM) of the same molecule?
**A.** The kinase still bound, per cent of control was 100%.

**Q.** And the kinase still bound, per cent of control ([36]; compound 1.0 µM)?
**A.** Its kinase still bound, per cent of control is 100%.

**Q.** And the kinase still bound, per cent of control ([37]; compound 1.0 µM)?
**A.** Its kinase still bound, per cent of control is 100%.

**Q.** And the kinase still bound, per cent of control ([38]; compound 1.0 µM)?
**A.** Its kinase still bound, per cent of control is 100%.

**Q.** And the kinase still bound, per cent of control ([39]; compound 1.0 µM)?
**A.** Its kinase still bound, per cent of control is 100%.

**Q.** And the kinase still bound, per cent of control ([40]; compound 1.0 µM)?
**A.** Its kinase still bound, per cent of control is 100%.

**Q.** What about the kinase still bound, per cent of control ([41]; compound 1.0 µM) of the same molecule?
**A.** Its kinase still bound, per cent of control is 100%.

Source: the kinase profiling compilation of Christmann-Franck et al. (2016)
